From patent publication US20030086974A1, “Odour regulation in hygiene products” (priority 2001, published 2003) come the findings set out here.

Common to all, as to assay type: physicochemical
Data set [1] in a line: Adsorption of phenolphthalein by oxidised β-cyclodextrin (absorption at 553 nm). The following applies: sample 1 mg/ml in sodium carbonate buffer pH 10.3 mixed with 10 μl 0.1% phenolphthalein in ethanol. The method, then: Five grams of β-cyclodextrin (CAVAMAX® W7 from Wacker-CHEMIE GMBH) on dry weight basis was dissolved in 300 ml of demi-water, and 22.4 ml of a 0.032 M 4-acetamido TEMPO solution was; added. Subsequently, β-cyclodextrin was oxidised by addition of sodium hypochlorite. Batches were prepared with theoretically one, two and three anhydroglucose units fully oxidised per cyclodextrin molecule (average) per β-cyclodextrin molecule using sodium hypochlorite. The pH was kept constant during reaction by addition of 0.5 M NaOH, controlled by a pH stat (Metrohm). After completion of the oxidation, the aldehyde groups were reduced with sodium borohydride. The respective batches were concentrated in a rotary evaporator, and subsequently freeze-dried. The freeze-dried material was washed in a methanol/water mixture to remove salts and 4-acetamido-TEMPO. The batches were finally washed with acetone and dried in an oven at 50° C. The inclusion properties were investigated (see Table 1).

Data set [2] in a line: Menthone inclusion (precipitation of the complex). The following applies: 100 mg of sample dissolved in water, 20 μl menthone added to notice precipitation.
A short description of data set [3]: Toluene inclusion (precipitation of the cyclodextrin-toluene complex). The following applies: 100 mg of sample dissolved in water, 20 μl toluene added to notice precipitation. The method, then: From 4.7 g β-cyclodextrin (dry), an oxidised cyclodextrin was prepared as described in Example 1, using 10 ml 2.0 M NaOCl solution, 150 mg NaBr and 80 mg 4-acetamido-TEMPO. The ratio acid/aldehyde was derived from the sodium hydroxide consumption and also experimentally determined. According to calculation, 6.3 mmol acid and 6.9 mmol aldehyde were produced. […] The reaction mixture was concentrated in vacuum to about 120 ml. […] Precipitation of the oxidised cyclodextrin-toluene complex started slowly i.e. after 10 minutes it was visible that a precipitate was formed. After 5 hours the process of precipitation formation seemed to be finished.
The same experiment was repeated with an acidified solution (pH 3). Here precipitation started immediately after mixing. The process was complete within one hour.
From 4.7 g β-cyclodextrin (dry) an oxidised cyclodextrin was prepared as described in Example 1, using 5 ml 2.0 M NaOCl solution, 150 mg NaBr and 4-acetamido-TEMPO. The ratio acid/aldehyde was derived from the sodium hydroxide consumption and also experimentally determined. According to calculation 2.2 mmol acid and 5.7 mmol aldehyde were produced. […] The reaction mixture was concentrated in vacuum to about 120 ml. […] Precipitation of the oxidised cyclodextrin-toluene complex started immediately and after one hour the process of precipitation formation appeared to be finished.

In the case of `OC[C@H]1O[C@@H]2O[C@H]3[C@H](O)[C@@H](O)[C@@H](O[C@H]4[C@H](O)[C@@H](O)[C@@H](O[C@H]5[C@H](O)[C@@H](O)[C@@H](O[C@H]6[C@H](O)[C@@H](O)[C@@H](O[C@H]7[C@H](O)[C@@H](O)[C@@H](O[C@H]8[C@H](O)[C@@H](O)[C@@H](O[C@H]1[C@H](O)[C@H]2O)O[C@@H]8CO)O[C@@H]7CO)O[C@@H]6CO)O[C@@H]5CO)O[C@@H]4CO)O[C@@H]3CO` [Example 0, β-cyclodextrin], the “Phenolphthalein Absorption (at γ = 553 nm)” value in data set [1] (Table 1) worked out at 0.025; in data set [1] (Table 2, solution without cyclodextrin Abs. = 0.65) it was 0.025. The Menthone inclusion result in data set [2] (Table 1) and in data set [2] (Table 2) was “Yes” in each case. In addition, the Toluene inclusion entry in data set [3] (Table 1) and in data set [3] (Table 2) was “Yes” each time.
